Here are results for 16 compounds from ChEMBL document CHEMBL3734667 (Bioorg Med Chem, 2015).

Usually CC50 stands for the concentration that lowers cell viability or growth by half. Usually EC50 stands for the concentration at which the effect is half-maximal.

Data set [1] can be described thus: Cytotoxicity against human MT4 cells assessed as cell viability after 96 hrs by MTT assay. In kind it is cell-based.
Data set [2] in a line: Cytotoxicity against MDBK cells assessed as cell viability after 48 to 96 hrs by MTT assay. In kind it is cell-based, Bos taurus. Particulars: cattle. On the technique in general: Tetrazolium assays rely on reduction of a dye to a coloured formazan, in cell work by metabolically active cells.
A short description of data set [3]: Cytotoxicity against BHK cells assessed as cell viability after 48 to 96 hrs by MTT assay. The data set is classed as cell-based, Mesocricetus auratus. Particulars: hamster.
A short description of data set [4]: Cytotoxicity against african green monkey Vero 76 cells assessed as cell viability after 48 to 96 hrs by crystal violet staining method. The data set is classed as cell-based. Particulars: chlorocebus sabaeus.
Data set [5] has as its system Bovine viral diarrhea virus 1. The data set is described as follows: Antiviral activity against BVDV infected in MDBK cells assessed as inhibition of virus-induced cytopathogenicity after 3 to 4 days by MTT assay. In kind it is functional, organism-based. Particulars: Bovine viral diarrhea virus isolates and strains.
Data set [6] has as its system Yellow fever virus. The data set can be described thus: Antiviral activity against YFV infected in BHK-21 cells assessed as inhibition of virus-induced cytopathogenicity after 3 to 4 days by MTT assay. In kind it is functional, organism-based. (Protection from cytopathic effect is a common read-out in antiviral testing.)
The test system of data set [7] is Mammalian orthoreovirus 1. The data set can be described thus: Antiviral activity against Reo-1 virus infected in BHK-21 cells assessed as inhibition of virus-induced cytopathogenicity after 3 to 4 days by MTT assay. The data set is classed as functional, cell-based. Particulars: Mammalian orthoreovirus 1, BHK-21.
The test system of data set [8] is Poliovirus 1. The data set can be described thus: Antiviral activity against Human poliovirus 1 Sabin infected in african green monkey Vero76 cells assessed as inhibition of virus-induced cytopathogenicity by plaque reduction assay. The data set is classed as functional, organism-based. Particulars: Enterovirus C, Vero 76.
Data set [9] concerns Human immunodeficiency virus 1. The data set can be described thus: Antiviral activity against HIV-1 infected in MT4 cells assessed as inhibition of virus-induced cytopathogenicity after 4 days by MTT assay. In kind it is functional, organism-based. Particulars: Human immunodeficiency virus 1, MT4, 96 h.
Data set [10] has as its system Human alphaherpesvirus 1. The data set can be described thus: Antiviral activity against HSV1. In kind it is functional, organism-based.
Data set [11] concerns Vesicular stomatitis virus. The data set can be described thus: Antiviral activity against VSV. In kind it is functional, organism-based.
Data set [12] concerns Coxsackievirus B5. The data set is described as follows: Antiviral activity against human CVB5 infected in african green monkey Vero76 cells assessed as inhibition of virus-induced cytopathogenicity after 3 days by plaque reduction assay. In kind it is functional, organism-based. Particulars: Enterovirus B, Vero 76, 72 h.
The subject of data set [13] is Human orthopneumovirus. The data set is described as follows: Antiviral activity against human RSV infected in african green monkey Vero76 cells assessed as inhibition of virus-induced cytopathogenicity after 5 days by plaque reduction assay. Particulars: human respiratory syncytial virus, Vero 76, 120 h. In kind it is functional, organism-based.
A short description of data set [14]: Selectivity index, ratio of CC50 for african green monkey Vero76 cells to EC50 for human RSV. Details: species or system human respiratory syncytial virus, Vero 76.
The test system of data set [15] is Vaccinia virus. The data set can be described thus: Antiviral activity against Vaccinia virus. The data set is classed as functional, organism-based. Particulars: Orthopoxvirus vaccinia.
Data set [16] in a line: Selectivity index, ratio of CC50 for MDBK cells to EC50 for BVDV. Details: species or system Bovine viral diarrhea virus 1.

`Clc1cc2nn(C3CCCCO3)nc2cc1Cl` (stereo not drawn): the cytotoxic concentration (CC50) at 96 h in [1] was over 100 µM. Moreover, the CC50 in [2] is over 100 µM; in [3], over 100 µM; in data set [4], at least 100 µM. The EC50 is over 100 µM in [5]; over 100 µM in [6]; over 100 µM in [7]; 60 µM in [8]; over 100 µM in data set [9]; over 100 µM in data set [10]. The compound further yielded an EC50 in [11] of over 100 µM.
As for `NC(=O)c1ncn([C@@H]2O[C@H](CO)[C@@H](O)[C@H]2O)n1` [RIBAVIRIN], the cytotoxic concentration (CC50) in [2], in data set [3] and in [4] was over 100 µM throughout. Also, the EC50 in data set [6] was over 100 µM; in data set [7], over 100 µM; in data set [12], over 100 µM; in [13] it was 7 µM; in [8] it was over 100 µM; in data set [10], over 100 µM. For the same compound, the EC50 in data set [11] and in data set [15] was over 100 µM in each case. Also, the “Ratio CC50/EC50” value in data set [14] is recorded as over 14.3.
For the compound `FC(F)(F)c1ccc2nn(Cc3ccccc3)nc2c1`, the CC50 at 96 h in data set [1] was over 100 µM. The CC50 in data set [2], in data set [3] and in data set [4] was over 100 µM in each case. In addition, the EC50 in data set [5], in [6], in [7], in [12], in data set [13] and in [8] was over 100 µM in each case. Also, the EC50 in [9], in [10], in data set [11] and in data set [15] was over 100 µM throughout.
On to `FC(F)(F)c1ccc2nn(Cc3ccc(Cl)cc3)nc2c1`, for which the CC50 at 96 h in data set [1] was over 100 µM. In addition, the CC50 in data set [2], in [3] and in [4] was over 100 µM each time. Moreover, the EC50 in data set [5], in data set [6], in [7], in data set [12], in data set [13] and in data set [8] was over 100 µM each time. For the same compound, the EC50 in data set [9], in data set [10], in [11] and in data set [15] was over 100 µM in each case.
Take `CC(C)(Oc1ccc(-n2nc3ccccc3n2)cc1)C(=O)O`: in data set [1], the CC50 at 96 h was over 100 µM. Besides, the CC50 was over 100 µM in [2], over 100 µM in [3] and at least 100 µM in data set [4]. The EC50 was over 100 µM in data set [5]; over 100 µM in data set [6]; over 100 µM in data set [12]; 80 µM in data set [13]; over 100 µM in data set [8]; over 100 µM in [9]. The EC50 in data set [11] and in data set [15] was over 100 µM in each case. Further, the “Ratio CC50/EC50” value in data set [14] turned out to be 1.25.
Turning to `COc1ccc2nn(-c3ccc(OC(C)(C)C(=O)O)cc3)nc2c1`, in data set [1], the CC50 at 96 h is over 100 µM. In addition, the CC50 was at least 100 µM in [2], over 100 µM in data set [3] and 90 µM in data set [4]. In addition, the EC50 was over 100 µM in [5]; over 100 µM in [6]; over 100 µM in [12]; 20 µM in [13]; over 100 µM in data set [8]; over 100 µM in [9]. Moreover, the EC50 in data set [11] and in data set [15] was over 100 µM in each case. Besides, the “Ratio CC50/EC50” value in [14] came to 4.5.
With `Clc1ccc(Cn2nc3cc(Cl)c(Cl)cc3n2)cc1`, the CC50 at 96 h in data set [1] was over 100 µM. Further, the CC50 in data set [2], in [3] and in data set [4] was over 100 µM throughout. Further, the EC50 in [5], in data set [6], in [7], in data set [12], in data set [13] and in data set [8] was over 100 µM each time. For the same compound, the concentration giving a half-maximal response (EC50) in data set [9], in [10], in [11] and in [15] was over 100 µM each time.
On to `COc1ccc(Cn2nnc3cc(Cl)c(Cl)cc32)cc1`, for which, in data set [1], the CC50 at 96 h is over 100 µM. For the same compound, the CC50 in data set [2], in [3] and in data set [4] was over 100 µM each time. In addition, the EC50 in data set [5], in [6], in [7], in [12], in [13] and in data set [8] was over 100 µM in each case. For the same compound, the EC50 in [9], in data set [10], in data set [11] and in [15] was over 100 µM in each case.
In the case of `COc1ccc(Cn2nc3cc(Cl)c(Cl)cc3n2)cc1`, the CC50 at 96 h in data set [1] is over 100 µM. Besides, the 50% cytotoxic concentration (CC50) in data set [2], in data set [3] and in data set [4] was over 100 µM throughout. For the same compound, the EC50 in [5], in [6], in [7], in data set [12], in data set [13] and in data set [8] was over 100 µM in each case. The EC50 in data set [9], in data set [10], in data set [11] and in data set [15] was over 100 µM throughout.
Regarding `Clc1cc2nn(Cc3ccccc3)nc2cc1Cl`, the CC50 at 96 h in [1] was over 100 µM. Also, the 50% cytotoxic concentration (CC50) in data set [2], in data set [3] and in [4] was over 100 µM throughout. Moreover, the EC50 in data set [5], in [6], in data set [7], in data set [12], in data set [13] and in data set [8] was over 100 µM throughout. Also, the EC50 in data set [9], in data set [10], in data set [11] and in data set [15] was over 100 µM each time.
For the compound `Clc1c(Cl)c(Cl)c2nn(C3CCCO3)nc2c1Cl` (stereo not drawn), the CC50 at 96 h in [1] was over 100 µM. In addition, the CC50 is at least 100 µM in data set [2], 30 µM in [3] and 12 µM in data set [4]. The EC50 in data set [5] was 12 µM; in data set [6], over 100 µM; in data set [7], over 100 µM; in data set [8] it was over 100 µM; in data set [9] it was over 100 µM; in data set [10], over 100 µM. Moreover, the EC50 in data set [11] is over 100 µM. Also, the “Ratio CC50/EC50” value in data set [16] is 8.33.
For `COc1c(C)c2c(c(O)c1C/C=C(\C)CCC(=O)O)C(=O)OC2` [MYCOPHENOLIC ACID], in data set [3], the CC50 was over 100 µM. Also, the EC50 in data set [5] is over 100 µM; in [6], over 100 µM; in [7] it was over 100 µM; in data set [12], over 100 µM; in data set [13], 0.6 µM; in [8], over 100 µM. Besides, the results for the EC50 in [10] and in data set [15] were over 100 µM and 2 µM, respectively. In addition, the “Ratio CC50/EC50” value in data set [14] is listed as 33.3.
For `COc1ccc(Cn2nc3ccc(C(F)(F)F)cc3n2)cc1`, the CC50 at 96 h in [1] is over 100 µM. Moreover, the CC50 in data set [2], in [3] and in data set [4] was over 100 µM in each case. Moreover, the EC50 in [5], in [6], in data set [7], in [12], in data set [13] and in data set [8] was over 100 µM throughout. Also, the EC50 in data set [9], in [10], in [11] and in data set [15] was over 100 µM each time.
Consider `CC(C)(Oc1ccc(-n2nc3ccc(Cl)cc3n2)cc1)C(=O)O`, for which the CC50 at 96 h in [1] is over 100 µM. Also, the CC50 in data set [2] is at least 100 µM; in data set [3], 75 µM; in [4], 70 µM. Further, the EC50 in data set [5] is over 100 µM; in data set [6], over 100 µM; in data set [12], over 100 µM; in data set [13], 25 µM; in data set [8], over 100 µM; in data set [9] it was over 100 µM. The EC50 in [11] and in data set [15] was over 100 µM throughout. The “Ratio CC50/EC50” value in data set [14] stood at 2.8.
With `Cc1ccc(C)c(OCCCC(C)(C)C(=O)O)c1` [GEMFIBROZIL], the CC50 at 96 h in data set [1] is over 100 µM. Moreover, the CC50 in data set [2], in data set [3] and in data set [4] was over 100 µM each time. Besides, the EC50 in [5] was 90 µM; in data set [6] it was over 100 µM; in [12], over 100 µM; in data set [13], over 100 µM; in data set [8], over 100 µM. For the same compound, the “Ratio CC50/EC50” value in [16] is listed as over 1.11.
On to `Cc1cc2nn(C3CCCO3)nc2cc1C` (stereo not drawn), for which the cytotoxic concentration (CC50) at 96 h in [1] is over 100 µM. In addition, the CC50 in [2], in [3] and in data set [4] was over 100 µM in each case. Moreover, the half-maximal effective concentration (EC50) in data set [5], in data set [6], in data set [7], in data set [8], in data set [9] and in data set [10] was over 100 µM throughout. Moreover, in data set [11], the half-maximal effective concentration (EC50) is over 100 µM.
